22 compounds from patent US20080200454A1, “CARBON-LINKED TETRAHYDRO-PYRAZOLO-PYRIDINE MODULATORS OF CATHEPSIN S” (priority 2007, published 2008) can be followed below.

Like-named read-outs stand apart in the source and are kept apart here.

The target of this assay is Recombinant human cathepsin S (CatS) (Homo sapiens, UniProt P25774). Description: Recombinant human cathepsin S (CatS) inhibition assay, fluorogenic substrate Z-Valine-Valine-Arginine-AMC.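 Also: Baculovirus-expressed CatS in pH 5.0 sodium acetate buffer with DTT and NaCl, fluorescence read each minute over 20 min, inhibition derived from rate slope.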
Sequence of Recombinant human cathepsin S (CatS) (P25774 115-331): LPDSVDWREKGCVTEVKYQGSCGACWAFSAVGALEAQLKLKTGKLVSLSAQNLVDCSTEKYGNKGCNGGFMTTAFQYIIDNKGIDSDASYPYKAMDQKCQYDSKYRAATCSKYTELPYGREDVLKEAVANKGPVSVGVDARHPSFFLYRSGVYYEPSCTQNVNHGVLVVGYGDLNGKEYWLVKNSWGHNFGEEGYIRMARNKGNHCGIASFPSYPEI

For `NC(=O)N1CCc2c(c(-c3ccc(Cl)c(C#Cc4ccc(Cl)c(CNCc5ccccn5)c4)c3)nn2CCCN2CCSCC2)C1` [Example 292, 3-{4-Chloro-3-[(4-chloro-3-{[(pyridin-2-ylmethyl)amino]methyl}phenyl)ethynyl]phenyl}-1-(3-thiomorpholin-4-ylpropyl)-1,4,6,7-tetrahydro-5H-pyrazolo[4,3-c]pyridine-5-carboxamide], for the setting “CatS IC50”, the 50% inhibitory concentration (IC50) – broadly, the concentration needed to halve the response being measured – came to 20 nM.
Take `CS(=O)(=O)N1CCc2c(c(-c3ccc(Cl)c(C#Cc4ccc(CNCc5ccc(Cl)cc5)cc4)c3)nn2CCCN2CC3(COC3)C2)C1` [Example 468, 1-{4-[(2-Chloro-5-{5-(methylsulfonyl)-1-[3-(2-oxa-6-azaspiro[3.3]hept-6-yl)propyl]-4,5,6,7-tetrahydro-1H-pyrazolo[4,3-c]pyridin-3-yl}phenyl)ethynyl]phenyl}-N-[(4-chlorophenyl)methyl]methanamine]: the IC50 was 190 nM.
`Cc1ccccc1CCc1cc(-c2nn(CCCN3CCOCC3)c3c2CN(S(C)(=O)=O)CC3)ccc1Cl` [Example 60, 3-[4-Chloro-3-(2-o-tolyl-ethyl)-phenyl]-5-methanesulfonyl-1-(3-morpholin-4-yl-propyl)-4,5,6,7-tetrahydro-1H-pyrazolo[4,3-c]pyridine]: the IC50 was found to be 880 nM.
For `COC(=O)[C@@H]1Cc2ccc(C#Cc3cc(-c4nn(CCCN5CCOCC5)c5c4CN(S(C)(=O)=O)CC5)ccc3Cl)cc2CN1C(=O)OC(C)(C)C` [Example 190, 2-(1,1-Dimethylethyl) 3-methyl (3S)-7-({2-chloro-5-[5-(methylsulfonyl)-1-(3-morpholin-4-ylpropyl)-4,5,6,7-tetrahydro-1H-pyrazolo[4,3-c]pyridin-3-yl]phenyl}ethynyl)-3,4-dihydroisoquinoline-2,3(1H)-dicarboxylate], the IC50 worked out at 1110 nM.
For `CS(=O)(=O)N1CCc2c(c(-c3ccc(Cl)c(C#Cc4ccccc4Cl)c3)nn2CCCN2CCOCC2)C1` [Example 26, 3-[4-Chloro-3-(2-chloro-phenylethynyl)-phenyl]-5-methanesulfonyl-1-(3-morpholin-4-yl-propyl)-4,5,6,7-tetrahydro-1H-pyrazolo[4,3-c]pyridine], the IC50 (CatS IC50) was 720 nM.
`C[C@H]1COCCN1CCCn1nc(-c2ccc(Cl)c(C#Cc3ccc(Cl)c(CN(CCO)CCO)c3)c2)c2c1CCN(C(=O)C(N)=O)C2` [Example 272, (S)-2-{3-[3-(3-{[Bis-(2-hydroxy-ethyl)-amino]-methyl}-4-chloro-phenylethynyl)-4-chloro-phenyl]-1-[3-(3-methyl-morpholin-4-yl)-propyl]-1,4,6,7-tetrahydro-pyrazolo[4,3-c]pyridin-5-yl}-2-oxo-acetamide]: the IC50 was found to be 30 nM.
Consider `CS(=O)(=O)N1CCc2c(c(-c3ccc(Cl)c(C#Cc4cccc(CNCc5ccc(Cl)cc5)c4)c3)nn2CCCN2CCN(c3ccccc3)CC2)C1` [Example 446, 1-{3-[(2-Chloro-5-{5-(methylsulfonyl)-1-[3-(4-phenylpiperazin-1-yl)propyl]-4,5,6,7-tetrahydro-1H-pyrazolo[4,3-c]pyridin-3-yl}phenyl)ethynyl]phenyl}-N-[(4-chlorophenyl)methyl]methanamine], for which the IC50 (CatS IC50) was found to be 70 nM.
For `CS(=O)(=O)N1CCc2c(c(-c3ccc(Cl)c(CCc4cccc(CNCc5ccccc5)c4)c3)nn2CCCN2CCOCC2)C1` [Example 535, 1-[3-(2-{2-Chloro-5-[5-(methylsulfonyl)-1-(3-morpholin-4-ylpropyl)-4,5,6,7-tetrahydro-1H-pyrazolo[4,3-c]pyridin-3-yl]phenyl}ethyl)phenyl]-N-(phenylmethyl)methanamine], where the note is “CatS IC50”, the IC50 came to 640 nM.
Regarding `C[C@H]1COCCN1CC(O)Cn1nc(-c2ccc(Cl)c(C#Cc3ccc(CNCc4ccc(Cl)cc4)cc3)c2)c2c1CCN(C(N)=O)C2` (stereo in doubt) [Example 258, 3-(4-Chloro-3-{4-[(4-chloro-benzylamino)-methyl]-phenylethynyl}-phenyl)-1-[(2S)-2-hydroxy-3-((3S)-3-methyl-morpholin-4-yl)-propyl]-1,4,6,7-tetrahydro-pyrazolo[4,3-c]pyridine-5-carboxylic acid amide], the IC50 was determined as 80 nM.
With `NC(=O)N1CCc2c(c(-c3ccc(Cl)c(C#Cc4ccc(CNCc5ccc(Cl)cc5)cc4)c3)nn2C[C@@H](O)CN2CCSCC2)C1` [Example 251, (S)-3-(4-Chloro-3-{4-[(4-chloro-benzylamino)-methyl]-phenylethynyl}-phenyl)-1-(2-hydroxy-3-thiomorpholin-4-yl-propyl)-1,4,6,7-tetrahydro-pyrazolo[4,3-c]pyridine-5-carboxylic acid amide], the IC50 stood at 40 nM.
With `CS(=O)(=O)N1CCc2c(c(-c3ccc(Cl)c(C#Cc4ccc(CCCC(=O)O)cc4)c3)nn2CCCN2CCOCC2)C1` [Example 8, 4-(4-{2-Chloro-5-[5-methanesulfonyl-1-(3-morpholin-4-yl-propyl)-4,5,6,7-tetrahydro-1H-pyrazolo[4,3-c]pyridin-3-yl]-phenylethynyl}-phenyl)-butyric acid], the IC50 was determined as 190 nM.
As to `O=C(CF)N1CCc2c(c(-c3ccc(Cl)c(C#Cc4ccc(Cl)cc4)c3)nn2CCCN2CCOCC2)C1` [Example 140, 1-[3-[4-Chloro-3-(4-chloro-phenylethynyl)-phenyl]-1-(3-morpholin-4-yl-propyl)-1,4,6,7-tetrahydro-pyrazolo[4,3-c]pyridin-5-yl]-2-fluoro-ethanone], the IC50 (CatS IC50, Table 2, average of results obtained) was found to be 250 nM.
As to `CS(=O)(=O)N1CCc2c(c(-c3ccc(C(F)(F)F)c(CCCNS(=O)(=O)c4ccccc4)c3)nn2CC(O)CN2CCOCC2)C1` (stereo not shown) [Example 306, N-(3-{5-[1-(2-Hydroxy-3-morpholin-4-ylpropyl)-5-(methylsulfonyl)-4,5,6,7-tetrahydro-1H-pyrazolo[4,3-c]pyridin-3-yl]-2-(trifluoromethyl)phenyl}propyl)benzenesulfonamide], the 50% inhibitory concentration (IC50) is 3220 nM.
With `C[C@H]1COCCN1CCCn1nc(-c2ccc(Cl)c(C#Cc3ccc(Cl)c(CN4CCOCC4)c3)c2)c2c1CCN(C(=O)C(N)=O)C2` [Example 588, 2-[3-(4-Chloro-3-{[4-chloro-3-(morpholin-4-ylmethyl)phenyl]ethynyl}phenyl)-1-{3-[(3S)-3-methylmorpholin-4-yl]propyl}-1,4,6,7-tetrahydro-5H-pyrazolo[4,3-c]pyridin-5-yl]-2-oxoacetamide], the IC50 (CatS IC50) amounted to 40 nM.
For `CS(=O)(=O)N1CCc2c(c(-c3ccc(Cl)c(CCc4ccccc4)c3)nn2CCCN2CCOCC2)C1` [Example 62, 3-(4-Chloro-3-phenethyl-phenyl)-5-methanesulfonyl-1-(3-morpholin-4-yl-propyl)-4,5,6,7-tetrahydro-1H-pyrazolo[4,3-c]pyridine], the IC50 worked out at 1230 nM.
The same measure, in the same setting: the same measure for `NC(=O)N1CCc2c(c(-c3ccc(Cl)c(C#Cc4ccc(Cl)c(C(=O)NC[C@@H]5CCCN5)c4)c3)nn2CCCN2CCSCC2)C1` [Example 558, 3-{4-Chloro-3-[(4-chloro-3-{[(2S)-pyrrolidin-2-ylmethyl]carbamoyl}phenyl)ethynyl]phenyl}-1-(3-thiomorpholin-4-ylpropyl)-1,4,6,7-tetrahydro-5H-pyrazolo[4,3-c]pyridine-5-carboxamide]: 30 nM; for `CC(C)(C)OC(=O)N1C[C@@H]2C[C@H]1CN2CCCn1nc(-c2ccc(Cl)c(C#Cc3ccc(CNCc4ccc(Cl)cc4)cc3)c2)c2c1CCN(S(C)(=O)=O)C2` [Example 491, 1,1-Dimethylethyl (1S,4S)-5-{3-[3-(4-chloro-3-{[4-({[(4-chlorophenyl)methyl]amino}methyl)phenyl]ethynyl}phenyl)-5-(methylsulfonyl)-4,5,6,7-tetrahydro-1H-pyrazolo[4,3-c]pyridin-1-yl]propyl}-2,5-diazabicyclo[2.2.1]heptane-2-carboxylate]: 120 nM.
For `NC(=O)N1CCc2c(c(-c3ccc(Cl)c(C#Cc4ccc(Cl)c(C(=O)N5CCCC5)c4)c3)nn2CCCN2CCSCC2)C1` [Example 570, 3-(4-Chloro-3-{[4-chloro-3-(pyrrolidin-1-ylcarbonyl)phenyl]ethynyl}phenyl)-1-(3-thiomorpholin-4-ylpropyl)-1,4,6,7-tetrahydro-5H-pyrazolo[4,3-c]pyridine-5-carboxamide], the IC50 (CatS IC50) was 260 nM.
Regarding `CS(=O)(=O)N1CCc2c(c(-c3ccc(Cl)c(C#Cc4ccc(C(=O)NCCN5CCOCC5)cc4)c3)nn2CCCN2CCCCC2)C1` [Example 608, 4-({2-Chloro-5-[5-(methylsulfonyl)-1-(3-piperidin-1-ylpropyl)-4,5,6,7-tetrahydro-1H-pyrazolo[4,3-c]pyridin-3-yl]phenyl}ethynyl)-N-(2-morpholin-4-ylethyl)benzamide], the half-inhibitory concentration (IC50) came to 70 nM.
Regarding `CC(C)(C)OC(=O)N1CCc2cc(C#Cc3cc(-c4nn(CCCN5CCOCC5)c5c4CN(S(C)(=O)=O)CC5)ccc3Cl)ccc2C1=O` [Example 525, 1,1-Dimethylethyl 6-({2-chloro-5-[5-(methylsulfonyl)-1-(3-morpholin-4-ylpropyl)-4,5,6,7-tetrahydro-1H-pyrazolo[4,3-c]pyridin-3-yl]phenyl}ethynyl)-1-oxo-3,4-dihydroisoquinoline-2(1H)-carboxylate], the IC50 came to 350 nM.
`CS(=O)(=O)N1CCc2c(c(-c3ccc(Cl)c(C#Cc4ccc5c(c4)CN[C@@H](C(N)=O)C5)c3)nn2CCCN2CCOCC2)C1` [Example 197, (3R)-7-({2-Chloro-5-[5-(methylsulfonyl)-1-(3-morpholin-4-ylpropyl)-4,5,6,7-tetrahydro-1H-pyrazolo[4,3-c]pyridin-3-yl]phenyl}ethynyl)-1,2,3,4-tetrahydroisoquinoline-3-carboxamide]: under “CatS IC50”, the IC50 came out at 200 nM.
As to `CC(C)(C)C1CCN(CCCn2nc(-c3ccc(Cl)c(C#Cc4ccc5c(c4)CNCC5)c3)c3c2CCN(S(C)(=O)=O)C3)CC1` [Example 378, 7-({2-Chloro-5-[1-{3-[4-(1,1-dimethylethyl)piperidin-1-yl]propyl}-5-(methylsulfonyl)-4,5,6,7-tetrahydro-1H-pyrazolo[4,3-c]pyridin-3-yl]phenyl}ethynyl)-1,2,3,4-tetrahydroisoquinoline], the IC50 (CatS IC50) was found to be 80 nM.
